Assays:
Type in all cases: cell-based
[1] = target: wild-type human cardiac sodium channel, hNav1.5 (Homo sapiens, UniProt Q14524); experiment: Late INa screening assay (QPatch whole cell patch clamp, tefluthrin-enhanced late sodium current); details: HEK293 hNav1.5, late INa activated with 10 μM Tefluthrin
How it was run: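 Automated whole-cell patch clamp of HEK293 cells stably expressing hNav1.5 (no β subunits), 23-25 °C. Late current enhanced by 10 μM tefluthrin, 250 ms steps to −20 mV from −120 mV at 0.1 Hz, measured 225-250 ms. Compounds typically 1 μM, three additions over 7-8 min; % block normalised to 0 Na baseline.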

hNav1.2 sodium channel = target: T1, hNav1.2 sodium channel (Homo sapiens, UniProt Q99250); experiment: Nav1.2 use-dependent block, whole-cell voltage clamp, 10 Hz pulse train; details: Chantest conditions, read-out: NAV1.2 UDB-10 HZ % Inhibition
T1 construct: expressed in transfected cells
T1 sequence (Q99250 whole entry): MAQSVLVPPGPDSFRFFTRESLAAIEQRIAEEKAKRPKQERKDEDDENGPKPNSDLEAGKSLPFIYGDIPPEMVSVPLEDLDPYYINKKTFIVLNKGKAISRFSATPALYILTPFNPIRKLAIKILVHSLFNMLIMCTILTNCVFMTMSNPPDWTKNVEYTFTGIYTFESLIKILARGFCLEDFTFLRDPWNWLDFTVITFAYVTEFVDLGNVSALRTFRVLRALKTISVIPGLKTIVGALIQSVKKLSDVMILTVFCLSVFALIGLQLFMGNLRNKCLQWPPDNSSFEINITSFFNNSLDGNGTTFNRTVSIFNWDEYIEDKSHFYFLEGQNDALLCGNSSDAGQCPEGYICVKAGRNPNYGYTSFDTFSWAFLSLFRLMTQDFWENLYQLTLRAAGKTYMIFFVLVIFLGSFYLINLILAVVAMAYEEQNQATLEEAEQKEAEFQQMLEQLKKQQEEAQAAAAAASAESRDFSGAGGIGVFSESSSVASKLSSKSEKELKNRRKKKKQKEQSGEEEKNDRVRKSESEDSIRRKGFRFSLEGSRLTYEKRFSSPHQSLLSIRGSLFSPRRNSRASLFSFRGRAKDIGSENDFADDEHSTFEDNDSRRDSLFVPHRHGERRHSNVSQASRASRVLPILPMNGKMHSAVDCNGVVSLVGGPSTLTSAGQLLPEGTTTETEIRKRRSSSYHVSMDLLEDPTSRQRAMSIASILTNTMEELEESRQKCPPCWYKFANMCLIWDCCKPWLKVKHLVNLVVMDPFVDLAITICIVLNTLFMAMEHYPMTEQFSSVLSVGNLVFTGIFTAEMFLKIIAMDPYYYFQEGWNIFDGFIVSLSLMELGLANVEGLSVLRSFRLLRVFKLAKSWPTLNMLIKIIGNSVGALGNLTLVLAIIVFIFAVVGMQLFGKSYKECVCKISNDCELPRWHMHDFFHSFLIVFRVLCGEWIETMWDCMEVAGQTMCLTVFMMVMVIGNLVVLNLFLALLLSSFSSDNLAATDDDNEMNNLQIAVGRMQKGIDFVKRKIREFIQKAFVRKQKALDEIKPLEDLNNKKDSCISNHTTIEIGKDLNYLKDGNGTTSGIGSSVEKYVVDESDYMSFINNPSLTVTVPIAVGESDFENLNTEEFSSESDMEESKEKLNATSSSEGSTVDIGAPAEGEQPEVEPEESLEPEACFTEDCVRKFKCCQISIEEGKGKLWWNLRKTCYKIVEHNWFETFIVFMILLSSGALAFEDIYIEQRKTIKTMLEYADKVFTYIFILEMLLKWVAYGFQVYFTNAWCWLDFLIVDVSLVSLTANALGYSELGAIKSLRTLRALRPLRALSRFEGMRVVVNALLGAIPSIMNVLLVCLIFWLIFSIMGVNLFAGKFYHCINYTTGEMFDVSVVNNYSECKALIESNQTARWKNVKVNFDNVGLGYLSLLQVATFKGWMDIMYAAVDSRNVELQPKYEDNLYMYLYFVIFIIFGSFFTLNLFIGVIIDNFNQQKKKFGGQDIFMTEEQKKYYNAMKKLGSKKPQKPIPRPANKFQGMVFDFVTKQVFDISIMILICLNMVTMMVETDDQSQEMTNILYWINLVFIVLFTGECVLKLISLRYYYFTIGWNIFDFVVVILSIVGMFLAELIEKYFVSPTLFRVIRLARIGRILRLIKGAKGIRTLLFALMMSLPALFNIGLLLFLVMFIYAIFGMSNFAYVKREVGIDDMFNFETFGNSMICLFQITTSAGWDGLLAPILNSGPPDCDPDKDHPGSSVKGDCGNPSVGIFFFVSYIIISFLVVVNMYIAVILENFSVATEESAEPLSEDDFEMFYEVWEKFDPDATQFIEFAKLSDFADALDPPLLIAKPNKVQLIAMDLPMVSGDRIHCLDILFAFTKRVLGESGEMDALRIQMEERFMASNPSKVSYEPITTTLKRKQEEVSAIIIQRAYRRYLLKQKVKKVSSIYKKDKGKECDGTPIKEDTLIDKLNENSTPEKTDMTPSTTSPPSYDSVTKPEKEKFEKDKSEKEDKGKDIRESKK
Description: Wild-type (WT) cDNA stably transfected in Chinese hamster ovary (CHO) cells is used to record INa. Unless otherwise noted, all reagents are purchased from Sigma-Aldrich (St Louis, Mo., U.S.A.).
Whole-cell voltage-clamp recordings are used to measure the biophysical properties of WT. Briefly, the pipette solution consists of (in mM) 110 CsF, 10 NaF, 20 CsCl, 2 EGTA, 10 HEPES, with a pH of 7.35 and osmolarity of 300 mOsmol/kg. The bath (control) solution contains in (mM): 145 NaCl, 4 KCl, 1.8 CaCl2, 1 MgCl2, 10 dextrose, 10 HEPES, with a pH of 7.35 and osmolarity of 310 mOsmol/kg. Cells are allowed to stabilize for 10 min after establishment of the whole-cell configuration before current is measured. Series resistance is compensated 90% to assure that the command potential is reached within microseconds with a voltage error<2 mV. Leak currents are subtracted by using an online P/4 procedure and all currents are low-pass Bessel filtered at 5 kHz and digitized at 50 kHz.
Tonic block of peak current is measured using a step to −10 mV (20 ms) from a holding potential of −120 mV (0.2 Hz). Use-dependent block of peak current is measured during pulse number 300 of a pulse train (−10 mV, 5 ms, 300 pulses, 10 Hz or 25 Hz) from a holding potential of −120 mV. Currents are then normalized to the peak current recorded in response to the first pulse in each frequency train. For tonic block studies, peak current is evaluated in response to a 20 ms depolarization to −10 mV (0.2 Hz). Two sequential pulse train stimulations are averaged to obtain mean current traces for each recording condition, which are then used for offline subtraction and analysis.
A stock solution of 10 mM compound of Formula I is prepared in 0.1 M HCl or DMSO. A fresh dilution of the compound of Formula I in the bath solution is prepared every experimental day and the pH is readjusted to 7.35 as necessary. The final DMSO concentration was kept at 0.1% in all solutions. Direct application of the perfusion solution to the clamped cell is achieved using the Perfusion Pencil system (Automate, Berkeley, Calif.). Direct cell perfusion is driven by gravity at a flow rate of 350 μL/min using a 250 micron tip. This system sequesters the clamped cell within a perfusion stream and enables complete solution exchange within 1 second. The clamped cell is perfused continuously starting immediately after establishing the whole-cell configuration. Control currents are measured during control solution perfusion.
Solutions are perfused for three minutes prior to current recordings to allow equilibrium (tonic) drug block. Tonic block of peak currents is measured from this steady-state condition. Three sequential current traces are averaged to obtain a mean current for each recording. The mean current traces are utilized for offline analysis.

human Nav1.1 = target: T2, human Nav1.1 (Homo sapiens, UniProt P35498); experiment: Nav1.1 use-dependent block, whole-cell voltage clamp, 10 Hz pulse train; details: Chantest conditions, read-out: NAV1.1 UDB-10 HZ % Inhibition
T2 construct: expressed in transfected cells; host or cells: HEK293, transient transfection (Qiagen Superfect), α1:β1:β2 at 10:1:1

Chain of wild-type human cardiac sodium channel, hNav1.5 (Q14524 whole entry): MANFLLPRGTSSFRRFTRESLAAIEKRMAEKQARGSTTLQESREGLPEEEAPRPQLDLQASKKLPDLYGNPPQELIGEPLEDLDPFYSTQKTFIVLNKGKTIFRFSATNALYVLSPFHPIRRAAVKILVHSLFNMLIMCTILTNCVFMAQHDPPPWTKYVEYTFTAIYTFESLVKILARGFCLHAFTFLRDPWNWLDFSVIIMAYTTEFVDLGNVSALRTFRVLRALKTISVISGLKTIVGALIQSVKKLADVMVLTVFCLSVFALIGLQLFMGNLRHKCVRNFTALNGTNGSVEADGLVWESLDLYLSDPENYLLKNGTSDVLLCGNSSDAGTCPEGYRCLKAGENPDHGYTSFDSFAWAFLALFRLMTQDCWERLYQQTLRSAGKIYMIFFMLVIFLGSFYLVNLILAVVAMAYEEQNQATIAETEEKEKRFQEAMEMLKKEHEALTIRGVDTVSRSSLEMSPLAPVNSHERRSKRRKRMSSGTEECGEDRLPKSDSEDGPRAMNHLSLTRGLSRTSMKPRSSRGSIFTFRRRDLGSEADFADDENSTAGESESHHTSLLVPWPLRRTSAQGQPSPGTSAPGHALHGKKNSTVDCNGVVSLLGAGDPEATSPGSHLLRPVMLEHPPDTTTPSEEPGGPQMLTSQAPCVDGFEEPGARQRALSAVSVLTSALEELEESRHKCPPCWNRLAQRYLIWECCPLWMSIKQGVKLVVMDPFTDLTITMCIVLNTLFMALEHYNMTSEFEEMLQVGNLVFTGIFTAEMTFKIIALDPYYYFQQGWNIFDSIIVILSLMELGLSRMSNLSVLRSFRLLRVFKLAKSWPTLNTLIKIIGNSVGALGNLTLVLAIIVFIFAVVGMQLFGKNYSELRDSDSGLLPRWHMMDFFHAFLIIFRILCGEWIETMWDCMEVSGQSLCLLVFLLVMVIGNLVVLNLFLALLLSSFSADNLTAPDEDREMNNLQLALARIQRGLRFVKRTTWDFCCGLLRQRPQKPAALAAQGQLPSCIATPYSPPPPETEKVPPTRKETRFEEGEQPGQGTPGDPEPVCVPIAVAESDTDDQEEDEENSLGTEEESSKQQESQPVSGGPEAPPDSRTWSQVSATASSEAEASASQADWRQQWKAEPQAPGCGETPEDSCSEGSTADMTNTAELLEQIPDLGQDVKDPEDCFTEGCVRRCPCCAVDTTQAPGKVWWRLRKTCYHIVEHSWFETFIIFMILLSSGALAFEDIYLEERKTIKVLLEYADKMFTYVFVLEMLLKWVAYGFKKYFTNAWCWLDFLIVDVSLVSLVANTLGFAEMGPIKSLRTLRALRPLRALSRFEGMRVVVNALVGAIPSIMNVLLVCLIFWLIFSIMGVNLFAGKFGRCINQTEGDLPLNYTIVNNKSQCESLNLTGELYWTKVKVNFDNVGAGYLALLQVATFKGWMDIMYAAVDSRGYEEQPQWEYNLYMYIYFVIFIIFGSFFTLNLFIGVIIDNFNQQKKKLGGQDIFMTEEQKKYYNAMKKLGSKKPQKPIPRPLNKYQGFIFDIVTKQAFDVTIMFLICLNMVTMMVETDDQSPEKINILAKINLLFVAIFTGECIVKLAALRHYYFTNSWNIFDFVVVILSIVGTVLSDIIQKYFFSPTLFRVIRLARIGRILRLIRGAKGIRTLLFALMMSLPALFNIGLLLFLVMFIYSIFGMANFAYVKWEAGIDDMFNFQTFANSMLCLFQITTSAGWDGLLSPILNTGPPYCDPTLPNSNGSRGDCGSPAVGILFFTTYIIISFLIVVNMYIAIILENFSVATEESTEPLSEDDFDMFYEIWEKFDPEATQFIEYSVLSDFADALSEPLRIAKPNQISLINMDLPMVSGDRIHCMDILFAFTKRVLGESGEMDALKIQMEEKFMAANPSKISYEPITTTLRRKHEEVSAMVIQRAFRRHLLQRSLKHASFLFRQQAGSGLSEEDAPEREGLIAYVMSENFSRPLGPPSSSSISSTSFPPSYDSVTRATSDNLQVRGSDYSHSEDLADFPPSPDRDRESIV

Structure (SMILES) | inhibition at 1 µM [1] [%] | inhibition at 1 µM (hNav1.2 sodium channel) [%] | inhibition at 1 µM (human Nav1.1) [%]
FC(F)(F)c1ccc(-c2ccc3c(c2)-c2nccn2CCO3)cc1 [Compound I-1, 10-(4-(trifluoromethyl)phenyl)-5,6-dihydrobenzo[f]imidazo[1,2-d][1,4]oxazepine] | 32 | 2 | -12
FC(F)(F)Oc1ccc(-c2ccc3c(c2)-c2nccn2CCO3)cc1 [Compound I-2, 10-(4-(trifluoromethoxy)phenyl)-5,6-dihydrobenzo[f]imidazo[1,2-d][1,4]oxazepine] | 31 | 18 | 1
Cc1cnc2n1CCOc1ccc(-c3ccc(C(F)(F)F)cc3)cc1-2 [Compound I-6, 3-methyl-10-(4-(trifluoromethyl)phenyl)-5,6-dihydrobenzo[f]imidazo[1,2-d][1,4]oxazepine] | 28 | -3 | -10
FC(F)(F)c1ccc(-c2ccc3c(c2)-c2ncc(C4CC4)n2CCO3)cc1 [Compound I-9, 3-cyclopropyl-10-(4-(trifluoromethyl)phenyl)-5,6-dihydrobenzo[f]imidazo[1,2-d][1,4]oxazepine] | 4 | 0 | 4
CC(C)(O)c1cnc2n1CCOc1ccc(-c3ccc(C(F)(F)F)cc3)cc1-2 [Compound I-10, 2-(10-(4-(trifluoromethyl)phenyl)-5,6-dihydrobenzo[f]imidazo[1,2-d][1,4]oxazepin-3-yl)propan-2-ol] | 10 | 0 | -5
FC(F)(F)c1ccc(-c2ccc3c(c2)-c2ncc(Cc4ccccc4)n2CCO3)cc1 [Compound I-11, 3-benzyl-10-(4-(trifluoromethyl)phenyl)-5,6-dihydrobenzo[f]imidazo[1,2-d][1,4]oxazepine] | 13 | -5 | -5
FC(F)(F)c1ccc(-c2ccc3c(c2)-c2ncc(Br)n2CCO3)cc1 [Compound I-12, 3-bromo-10-(4-(trifluoromethyl)phenyl)-5,6-dihydrobenzo[f]imidazo[1,2-d][1,4]oxazepine] | 4 | 6 | -7
FC(F)(F)c1ccc(-c2ccc3c(c2)-c2ncc(Cl)n2CCO3)cc1 [Compound I-13, 3-chloro-10-(4-(trifluoromethyl)phenyl)-5,6-dihydrobenzo[f]imidazo[1,2-d][1,4]oxazepine] | 6 | 8 | -3
Cc1c(Cl)nc2n1CCOc1ccc(-c3ccc(C(F)(F)F)cc3)cc1-2 [Compound I-14, 2-chloro-3-methyl-10-(4-(trifluoromethyl)phenyl)-5,6-dihydrobenzo[f]imidazo[1,2-d][1,4]oxazepine] | 11 | 4 | 0

Source: US9695192B2, “Fused heterocyclic compounds as ion channel modulators” (GILEAD SCIENCES, INC., priority 2011, dated 2017)
